Reference: patent US5340815A, “2-substituted-4,6-di-tertiary-butyl-5-hydroxy-1,3-pyrimidines useful as antiinflammatory agents” (Warner-Lambert Company, priority 1993, dated 1994)

What was measured:
[1] = system: Cyclooxygenase; assay: ARBC whole cell cyclooxygenase assay (PGF2α formation, RBL-1 cells); format: cell-based, rat; settings: 10 μM
Experimental: (§1) ARBL/ARBC Whole Cell 5-Lipoxygenase and Cyclooxygenase Assays The rat basophilic leukemia cell line (RBL-1) was obtained from the American Type Culture Collection (Rockville, Md.). Radioimmunoassay (RIA) kits of LTB4 and PGF2α were obtained from Amersham (Arlington Heights, Ill.) and Seragen (Boston, Mass.), respectively. All tissue culture media were obtained from GIBCO (Grand Island, N.Y.). RBL-1 cells are grown in suspension culture in Eagle's minimum essential medium supplemented with 12% fetal bovine serum at 37° C. in an incubator supplied with air-5% carbon dioxide. Cells are harvested by centrifugation. They are washed with cold phosphate buffered saline pH 7.4 (PBS; NaCl, 7.1 g; Na2 HPO4, 1.15 g; KH2 PO4, 0.2 g; and KCl, 0.2 g/l). Cells are finally suspended in PBS containing 1.0 mM calcium at a density of 2×10^6 cells/mi. Cells are incubated with and without test agent (in DMSO) (1% DMSO is without effect on arachidonic acid metabolism) for ten minutes at room temperature. Calcium ionophore A23187 (5 μM) is added and cells are incubated for 7 minutes at 37° C. The reaction is stopped by chilling the tubes on ice for 10 minutes. Cells are separated by centrifugation and the supernatant is stored at -20° Aliquots (100 μL) are analyzed for LTB4 and PGF2α using radioimmunoassay kits as provided by the supplier. […]

[2] = system: Carrageenan-Induced Rat Foot Paw Edema; assay: Carrageenan-induced rat foot paw edema-2 (CFE-2) assay; format: in vivo; settings: 30 mg/kg, methanesulfonate salt, dosed one hour before carrageenan; edema at five hours
Experimental: Carrageenan-Induced Rat Foot Paw Edema-2 (CFE-2) Assay: Protocol
Carrageenan solution (1% w/v) is prepared by dissolving 100 mg carrageenan (Marine Colloidal Div., Springfield, N.J.) in 10 mL of sterile saline (0.9%) solution (Travenol). The solution is vortexed for 30 to 45 minutes. Animals are dosed with compound one hour before carrageenan challenge. Foot paw edema is induced by injecting 0.10 ml of the 1% carrageenan subcutaneously into the plantar portion of the right hind paw of each rat under light anesthesia. Initial foot paw volume is measured immediately following carrageenan challenge using mercury plethysmography (Buxco Electronics). Edema is measured five hours after carrageenan. The difference between the five-hour and the initial paw volume is expressed as delta edema. The delta edema for each test group of animals is used to calculate the percent inhibition of edema achieved by-the compound at the test dose compared with the vehicle control group. The ID40 (the dose at which swelling is inhibited by 40%) is calculated by probit analysis for the dose at which 40 percent inhibition occurs.

[3] = system: 5-Lipoxygenase; assay: ARBL whole cell 5-lipoxygenase assay (LTB4 formation, RBL-1 cells); format: cell-based, rat; settings: 10 μM
Experimental: as §1

Compound	ARBC, % inhibition (PGF2α formation) [1] [%]	% Inhibition of Edema [2] [%]	ARBL, % inhibition (LTB4 formation) [3] [%]	ARBL, inhibition class (LTB4 formation) [3]
CC(C)(C)c1nc(/C=C/c2cccnc2)nc(C(C)(C)C)c1O [Example 1, [E]-4,6-Bis(1,1-dimethylethyl)-2-[[2-(3-pyridinyl)]-ethenyl]-5-pyrimidinol]	85	45	100	–
Cc1cc(C=Cc2nc(C(C)(C)C)c(O)c(C(C)(C)C)n2)sn1 [Example 3]	60	–	–	N* (<40% inhibition at 10 μM)
